Assay results taken from ChEMBL document CHEMBL5042487, “Design, synthesis, and biological activity evaluation of 2-(benzo[b]thiophen-2-yl)-4-phenyl-4,5-dihydrooxazole derivatives as broad-spectrum antifungal agents” (Eur J Med Chem, 2022).
In brackets after ≈: the same amount, converted by molar mass.

Experiments:
Candida tropicalis = test: Antifungal activity against Candida tropicalis GIM 2.183 assessed as inhibition of fungal growth by NCCLS protocol based method; assay type: functional
Aspergillus fumigatus = test: Antifungal activity against Aspergillus fumigatus CGMCC 3.7795 assessed as inhibition of fungal growth by NCCLS protocol based method; assay type: functional
Cryptococcus neoformans = test: Antifungal activity against Cryptococcus neoformans GIM 2.209 assessed as inhibition of fungal growth by NCCLS protocol based method; assay type: functional
Candida albicans [1] = test: Antifungal activity against Candida albicans SC5314 assessed as inhibition of fungal growth by NCCLS protocol based method; assay type: functional
Candida albicans [2] = test: Antifungal activity against Candida albicans GIM 2.194 assessed as inhibition of fungal growth by NCCLS protocol based method; assay type: functional
Candida albicans [3] = test: Antifungal activity against fluconazole resistant Candida albicans CaR assessed as inhibition of fungal growth by NCCLS protocol based method; assay type: functional
Candida albicans [4] = test: Antifungal activity against fluconazole and itraconazole resistant Candida albicans 17# assessed as inhibition of fungal growth by NCCLS protocol based method; assay type: functional
[5] = Stability in human plasma assessed as compound remaining incubated for 120 mins by LC-MS/MS analysis; assay type: ADME, cell-free; conditions: 2 h
[6] = Stability in human plasma assessed as compound remaining incubated for 60 mins by LC-MS/MS analysis; assay type: ADME, cell-free; conditions: read-out: Stability
[7] = Stability in human plasma assessed as half life incubated for 60 mins by LC-MS/MS analysis; assay type: ADME, cell-free

c1ccc(C2(Cn3cncn3)COC(c3ccc(-c4ccoc4)cc3)=N2)cc1 (configuration not stated)
MIC (Candida tropicalis): < 0.125 µg/mL
MIC (Aspergillus fumigatus): 0.5 µg/mL (≈ 1.35 µM)
MIC (Cryptococcus neoformans): 0.25 µg/mL (≈ 0.675 µM)
MIC (Candida albicans [1]): < 0.03 µg/mL
MIC (Candida albicans [2]): 0.5 µg/mL (≈ 1.35 µM)

Fc1ccc2cc(C3=NC(Cn4cncn4)(c4ccccc4)CO3)sc2c1 (configuration not stated)
MIC (Candida tropicalis): 4 µg/mL (≈ 10.6 µM)
MIC (Aspergillus fumigatus): 2 µg/mL (≈ 5.28 µM)
MIC (Cryptococcus neoformans): 4 µg/mL (≈ 10.6 µM)
MIC (Candida albicans [1]): 0.25 µg/mL (≈ 0.661 µM)
MIC (Candida albicans [2]): 1 µg/mL (≈ 2.64 µM)

Fc1ccc2sc(C3=NC(Cn4cncn4)(c4ccccc4)CO3)cc2c1 (configuration not stated)
MIC (Candida tropicalis): > 16 µg/mL
MIC (Aspergillus fumigatus): 1 µg/mL (≈ 2.64 µM)
MIC (Cryptococcus neoformans): 16 µg/mL (≈ 42.3 µM)
MIC (Candida albicans [1]): 1 µg/mL (≈ 2.64 µM)
MIC (Candida albicans [2]): > 16 µg/mL

O=C(Nc1ccc(C2=NC(Cn3cncn3)(c3ccccc3)CO2)cc1)c1ccccc1 (configuration not stated)
MIC (Candida tropicalis): > 64 µg/mL
MIC (Aspergillus fumigatus): > 64 µg/mL
MIC (Cryptococcus neoformans): > 64 µg/mL
MIC (Candida albicans [1]): > 16 µg/mL
MIC (Candida albicans [2]): 8 µg/mL (≈ 18.9 µM)

N#Cc1ccc2cc(C3=NC(Cn4cncn4)(c4ccccc4)CO3)sc2c1 (configuration not stated)
MIC (Candida tropicalis): > 16 µg/mL
MIC (Aspergillus fumigatus): > 64 µg/mL
MIC (Cryptococcus neoformans): > 64 µg/mL
MIC (Candida albicans [1]): > 16 µg/mL
MIC (Candida albicans [2]): > 16 µg/mL

c1ccc(-c2cc(C3=NC(Cn4cncn4)(c4ccccc4)CO3)no2)cc1 (configuration not stated)
MIC (Candida tropicalis): > 64 µg/mL
MIC (Aspergillus fumigatus): 2 µg/mL (≈ 5.39 µM)
MIC (Cryptococcus neoformans): > 64 µg/mL
MIC (Candida albicans [1]): > 16 µg/mL
MIC (Candida albicans [2]): > 16 µg/mL

c1ccc(C2=NC(Cn3cncn3)(c3ccccc3)CO2)cc1 (configuration not stated)
MIC (Candida tropicalis): > 64 µg/mL
MIC (Aspergillus fumigatus): > 64 µg/mL
MIC (Cryptococcus neoformans): > 64 µg/mL
MIC (Candida albicans [1]): > 16 µg/mL
MIC (Candida albicans [2]): > 16 µg/mL

Clc1ccc(C2(Cn3cncn3)COC(c3cc4ccc(Br)cc4s3)=N2)cc1 (configuration not stated)
MIC (Candida tropicalis): 0.06 µg/mL (≈ 0.127 µM)
MIC (Aspergillus fumigatus): 1 µg/mL (≈ 2.11 µM)
MIC (Cryptococcus neoformans): 0.25 µg/mL (≈ 0.528 µM)
MIC (Candida albicans [3]): 0.5 µg/mL (≈ 1.06 µM)
MIC (Candida albicans [4]): > 64 µg/mL
MIC (Candida albicans [1]): < 0.03 µg/mL
MIC (Candida albicans [2]): < 0.03 µg/mL

FC(F)(F)c1ccc2cc(C3=NC(Cn4cncn4)(c4ccccc4)CO3)sc2c1 (configuration not stated)
MIC (Candida tropicalis): 8 µg/mL (≈ 18.7 µM)
MIC (Aspergillus fumigatus): > 64 µg/mL
MIC (Cryptococcus neoformans): 16 µg/mL (≈ 37.3 µM)
MIC (Candida albicans [1]): 0.25 µg/mL (≈ 0.584 µM)
MIC (Candida albicans [2]): > 16 µg/mL

c1ccc(C2(Cn3cncn3)COC(c3cc4ccccc4s3)=N2)cc1 (configuration not stated)
MIC (Candida tropicalis): 2 µg/mL (≈ 5.55 µM)
MIC (Aspergillus fumigatus): 1 µg/mL (≈ 2.77 µM)
MIC (Cryptococcus neoformans): 0.25 µg/mL (≈ 0.694 µM)
MIC (Candida albicans [1]): 0.25 µg/mL (≈ 0.694 µM)
MIC (Candida albicans [2]): 1 µg/mL (≈ 2.77 µM)

c1ccc(C2(Cn3cncn3)COC(c3ccc4ccccc4c3)=N2)cc1 (configuration not stated)
MIC (Candida tropicalis): > 64 µg/mL
MIC (Aspergillus fumigatus): 4 µg/mL (≈ 11.3 µM)
MIC (Cryptococcus neoformans): 1 µg/mL (≈ 2.82 µM)
MIC (Candida albicans [1]): > 16 µg/mL
MIC (Candida albicans [2]): > 16 µg/mL

Fc1ccc(C2(Cn3cncn3)COC(c3cc4ccc(Cl)cc4s3)=N2)c(F)c1 (configuration not stated)
MIC (Candida tropicalis): 0.06 µg/mL (≈ 0.139 µM)
MIC (Aspergillus fumigatus): > 64 µg/mL
MIC (Cryptococcus neoformans): 0.25 µg/mL (≈ 0.58 µM)
MIC (Candida albicans [1]): 0.06 µg/mL (≈ 0.139 µM)
MIC (Candida albicans [2]): < 0.03 µg/mL

Clc1cccc(C2(Cn3cncn3)COC(c3cc4ccc(Br)cc4s3)=N2)c1 (configuration not stated)
MIC (Candida tropicalis): 0.125 µg/mL (≈ 0.264 µM)
MIC (Aspergillus fumigatus): 16 µg/mL (≈ 33.8 µM)
MIC (Cryptococcus neoformans): 0.5 µg/mL (≈ 1.06 µM)
MIC (Candida albicans [1]): 0.06 µg/mL (≈ 0.127 µM)
MIC (Candida albicans [2]): 0.06 µg/mL (≈ 0.127 µM)

Fc1cc(F)cc(C2(Cn3cncn3)COC(c3cc4ccc(Cl)cc4s3)=N2)c1 (configuration not stated)
MIC (Candida tropicalis): 0.125 µg/mL (≈ 0.29 µM)
MIC (Aspergillus fumigatus): > 64 µg/mL
MIC (Cryptococcus neoformans): 0.25 µg/mL (≈ 0.58 µM)
MIC (Candida albicans [1]): 0.06 µg/mL (≈ 0.139 µM)
MIC (Candida albicans [2]): 0.06 µg/mL (≈ 0.139 µM)

Brc1ccc2cc(C3=NC(Cn4cncn4)(c4ccccc4)CO3)sc2c1 (configuration not stated)
MIC (Candida tropicalis): 0.06 µg/mL (≈ 0.137 µM)
MIC (Aspergillus fumigatus): 0.5 µg/mL (≈ 1.14 µM)
MIC (Cryptococcus neoformans): 0.25 µg/mL (≈ 0.569 µM)
MIC (Candida albicans [1]): < 0.03 µg/mL
MIC (Candida albicans [2]): 0.06 µg/mL (≈ 0.137 µM)

Clc1ccc2cc(C3=NC(Cn4cncn4)(c4ccccc4)CO3)sc2c1 (configuration not stated)
MIC (Candida tropicalis): 0.06 µg/mL (≈ 0.152 µM)
MIC (Aspergillus fumigatus): 0.5 µg/mL (≈ 1.27 µM)
MIC (Cryptococcus neoformans): 0.25 µg/mL (≈ 0.633 µM)
MIC (Candida albicans [1]): < 0.03 µg/mL
MIC (Candida albicans [2]): 0.06 µg/mL (≈ 0.152 µM)

FC(F)(F)c1ccc2sc(C3=NC(Cn4cncn4)(c4ccccc4)CO3)cc2c1 (configuration not stated)
MIC (Candida tropicalis): > 16 µg/mL
MIC (Aspergillus fumigatus): > 64 µg/mL
MIC (Cryptococcus neoformans): > 64 µg/mL
MIC (Candida albicans [1]): 0.5 µg/mL (≈ 1.17 µM)
MIC (Candida albicans [2]): > 16 µg/mL

Clc1cccc(C2(Cn3cncn3)COC(c3cc4ccc(Cl)cc4s3)=N2)c1 (configuration not stated)
MIC (Candida tropicalis): 0.125 µg/mL (≈ 0.291 µM)
MIC (Aspergillus fumigatus): 16 µg/mL (≈ 37.3 µM)
MIC (Cryptococcus neoformans): 0.5 µg/mL (≈ 1.16 µM)
MIC (Candida albicans [1]): 0.06 µg/mL (≈ 0.14 µM)
MIC (Candida albicans [2]): 0.06 µg/mL (≈ 0.14 µM)

OC(Cn1cncn1)(Cn1cncn1)c1ccc(F)cc1F [FLUCONAZOLE]
MIC (Candida tropicalis): 1 µg/mL (≈ 3.27 µM)
MIC (Aspergillus fumigatus): > 64 µg/mL
MIC (Cryptococcus neoformans): 4 µg/mL (≈ 13.1 µM)
Stability [5]: 88.2%
MIC (Candida albicans [3]): > 64 µg/mL
remaining at 1 h [6]: 86.7%
MIC (Candida albicans [4]): > 64 µg/mL
MIC (Candida albicans [1]): 0.5 µg/mL (≈ 1.63 µM)
MIC (Candida albicans [2]): 1 µg/mL (≈ 3.27 µM)
half-life [7]: > 4.82 h

CCC(C)n1ncn(-c2ccc(N3CCN(c4ccc(OCC5COC(Cn6cncn6)(c6ccc(Cl)cc6Cl)O5)cc4)CC3)cc2)c1=O (configuration not stated) [ITRACONAZOLE]
MIC (Candida tropicalis): < 0.03 µg/mL
MIC (Aspergillus fumigatus): < 0.125 µg/mL
MIC (Cryptococcus neoformans): < 0.125 µg/mL
MIC (Candida albicans [1]): < 0.03 µg/mL
MIC (Candida albicans [2]): < 0.03 µg/mL
